Measured values reported in patent publication US20250127813A1, “COMBINATION DRUG” (OTSUKA PHARMACEUTICAL CO., LTD., priority 2021, published 2025).
Entries after “also recorded” stand apart in the source; their conditions may differ.

How the values were obtained:
A375 = experiment: Combination of tolinapant and NY-ESO-1 TCR-T in A375 subcutaneous tumor-bearing NOG mice; format: in vivo, mouse
Method: Each mouse was identified with a number attached to the tail of the mouse.
The evaluation period was set to 2 weeks, and grouping and pharmacological evaluation were performed based on the results of tumor diameter measurement using a caliper. The tumor diameter and body weight were measured twice a week.
Using trypsin-EDTA-PBS(−), the cultured cells were detached and collected and then centrifuged (4° C., 1200 rpm, 5 min). After removing the supernatant, D-PBS (−) was added and the cells were resuspended and washed by centrifugation in the same manner as above. This washing operation was further repeated twice. After a portion of the cell suspension was taken and the number of viable cells was counted using AOPI Staining Solution, a cell suspension at 1×10^7 cells/mL was prepared using D-PBS(−), After the preparation, the cell suspension was stored in ice until transplantation. […]
On the eighth day after the transplantation, the long diameter and the short diameter were measured and the tumor volume was calculated. […]
The tumor diameter was determined by measuring the short diameter and the long diameter using an electronic caliper (produced by Mitutoyo Corporation). After tumor cell transplantation, the tumor diameter was measured twice a week.
Based on the measurement results of the tumor diameter, the tumor volume (TV: tumor volume) was calculated using the following formula: […]

MM.1S-luc2 = experiment: Combination of tolinapant and activated integrin β7 CAR-T in MM.1S-luc2 tumor-bearing NOG mice; format: in vivo, mouse
Method: (§1) Each mouse was identified with a number attached to the tail of the mouse. During the breeding period, the mice were housed in groups of 5 mice each and bred in a breeding room at a temperature of 24° C.
The evaluation period was set to up to day 14 or day 21. Grouping and pharmacological evaluation were performed using tumor luminescence values as determined by IVIS as an indicator. The luminescence value as determined by IVIS and body weight were measured twice a week.
After grouping, the individuals were identified by marking on the tail of each mouse.
(§2) For the measurement, IVIS (trademark) Lumina X5 was used.

NALM6 = experiment: Combination of tolinapant and CD19 CAR-KHYG-1 in NALM6 subcutaneous tumor-bearing NOG mice; format: in vivo, mouse
Method: as §1
After grouping, CD19 CAR KHYG-1 cells and KHYG-1 cells were intratumorally administered 4 times in total according to the group constitution.
The evaluation period was set up to day 17. Grouping and pharmacological evaluation were performed using the results of tumor volume measurement with a caliper as an indicator. The tumor volume measurement and body weight measurement were performed twice a week and before each administration. […]
On the 21th day after the transplantation, the long diameter and the short diameter were measured and the tumor volume was calculated. […]
4) For KHYG-1 cell administration solution and CD19 CAR-KHYG-1 cell administration solution, the number of viable cells was counted and a cell suspension with the cell density being adjusted according to the group composition table was prepared and intratumorally administered twice a week at 0.1 mL/body (4 times in total).
The tumor diameter was determined by measuring the short diameter and the long diameter using an electronic caliper (produced by Mitutoyo Corporation). After tumor cell transplantation, the tumor diameter was measured twice a week. […]

NALM6-luc2 = experiment: Combination of tolinapant and CD19 CAR-T against a low volume of tumor (NALM6-luc2, NOG mice); format: in vivo, mouse
Excerpt: as §2

CD19-negative NALM6 = experiment: Cell death induction by tolinapant in presence of cytokine produced from CAR-T; format: cell-based; settings: cytokine produced from CAR-T present with tolinapant; antigen-negative as well as antigen-expressing tumor cells
Excerpt: It has also been confirmed that when CAR-T used in this Example was reacted with a target CAR antigen-expressing tumor cell (e.g., CD19-positive NALM6) in vitro, cytokine (e.g., TNF-α) was produced. […] This non-contact apoptosis induction to tumor cells is expected to exert an antitumor effect on tumor cells in which antigen escape has occurred or tumor cells metastasized to a site to which modified immune cells cannot make access.

MDA-MB-231 = settings: 16 mg/kg, daily oral administration; References 1 and 2; cited from earlier work

SMILES: C[C@@H]1CN(CC(=O)N2CC(C)(C)c3nc(CO)c(Cc4ccc(F)cc4)cc32)[C@@H](CN2CCOC[C@H]2C)CN1 [Tolinapant, 1-[6-[(4-fluorophenyl)methyl]-5-(hydroxymethyl)-3,3-dimethyl-2H-pyrrolo[3,2-b]pyridin-1-yl]-2-[(2R,5R)-5-methyl-2-[[(3R)-3-methylmorpholin-4-yl]methyl]piperazin-1-yl]ethanone]
- tumor volume on day 15, combination versus either agent alone (A375; tolinapant 16 mg/kg po + NY-ESO-1 TCR-T 3×10^6 cells/body iv, day 15): a significant difference was observed
- tumor regression with NY-ESO-1 TCR-T and tolinapant both administered (A375; tolinapant 16 mg/kg po + NY-ESO-1 TCR-T iv, compared with NY-ESO-1 TCR-T alone): a higher degree of tumor regression was confirmed; also recorded: synergistic effects based on the combined use were shown; also recorded: significant, highly reproducible results
- combination effect of tolinapant and aITGB7 CAR-T (tumor luminescence value) (MM.1S-luc2; tolinapant 16 mg/kg po every day + aITGB7 CAR-T 3×10^4 cells/body iv, evaluated for 21 days): A significant combination effect was observed; also recorded: tumor regression was clearly observed on day 11 and thereafter; also recorded: a significant synergistic effect was observed; also recorded: significant, highly reproducible results
- effect of tolinapant administered alone on MM.1S (MM) (MM.1S-luc2; tolinapant alone): no effect
- combination effect of tolinapant and CD19 CAR-KHYG-1 (tumor volume) (NALM6; tolinapant 16 mg/kg po every day + CD19 CAR-KHYG-1 1×10^7 cells/body intratumoral Day 0, 4, 7, 11, evaluated for 17 days): A significant combination effect was observed; also recorded: a proliferation suppression effect was clearly shown on day 7 and thereafter; also recorded: significant combination effects were observed on day 17; also recorded: significant, highly reproducible results
- antitumor effect of tolinapant alone (NALM6; tolinapant alone, 16 mg/kg po every day): no antitumor effects were observed
- reduction in the number of CAR-T cells achieved by the combination (NALM6-luc2; 2×10^4 cells + tolinapant versus 1×10^6 cells alone, suggested possibility): at least 50 fold
- combination effect of tolinapant and CD19 CAR-T on a low volume of tumor (NALM6-luc2; tolinapant 16 mg/kg qd po + CD19 CAR-T): a strong combination effect was observed
- effect of tolinapant + 1×10^5 cells CD19 CAR-T compared with 1×10^6 cells CD19 CAR-T alone (NALM6-luc2; tolinapant 16 mg/kg qd po + CD19 CAR-T 1×10^5 cells/body iv): an effect equivalent to the effect achieved by using 1×10^6 cells of CD19 CAR-T alone was observed on day 17
- effect of tolinapant + 2×10^4 cells CD19 CAR-T compared with 1×10^6 cells CD19 CAR-T alone (NALM6-luc2; tolinapant 16 mg/kg qd po + CD19 CAR-T 2×10^4 cells/body iv): an effect equivalent to the effect achieved by using 1×10^6 cells of CD19 CAR-T alone was observed on day 21
- induction of cell death (e.g., apoptosis) (CD19-negative NALM6): cell death (e.g., apoptosis) is induced to antigen-negative tumor cells (e.g., CD19-negative NALM6) as well as antigen-expressing cells
- efficacy of tolinapant in MDA-MB-231 xenograft mice (MDA-MB-231): exhibited efficacy
